# Inconclusive results and toxic doses are left out.
# Tested on: P388 leukemia ip, CD2F1 mice, survival T/C
# Test: NCI In Vivo Anticancer Drug Screen. Data for tumor model P388 Leukemia (intraperitoneal) in CD2F1 (CDF1) mice
# Conditions: endpoint: median survival time, higher = longer survival
# Summary of the method: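 Mice carrying the transplanted tumor received test compound or vehicle. Survival was recorded in each group, and the value is the treated-group measurement divided by that of the vehicle-treated control group.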
# [1] = dose: 12.5 mg/kg/injection, schedule: Q01DX009 (ip), vehicle: saline
# [2] = dose: 25.0 mg/kg/injection, schedule: Q01DX009 (ip), vehicle: saline
# [3] = dose: 50.0 mg/kg/injection, schedule: Q01DX009 (ip), vehicle: saline
# [4] = dose: 100.0 mg/kg/injection, schedule: Q01DX009 (ip), vehicle: saline
# [5] = dose: 200.0 mg/kg/injection, schedule: Q01DX009 (ip), vehicle: saline
# [6] = dose: 60.0 mg/kg/injection, schedule: Q01DX005 (ip), vehicle: saline with Tween-80
# [7] = dose: 120.0 mg/kg/injection, schedule: Q01DX005 (ip), vehicle: saline with Tween-80
# [8] = dose: 240.0 mg/kg/injection, schedule: Q01DX005 (ip), vehicle: saline with Tween-80
smiles,measurement,setting,value
O=C(O)CP(=O)(O)O,T/C,"dose: 4.0 mg/kg/injection, schedule: Q01DX009 (ip), vehicle: saline",94 % of control
same,T/C,"dose: 6.25 mg/kg/injection, schedule: Q01DX009 (ip), vehicle: saline",100 % of control
same,T/C,"dose: 8.0 mg/kg/injection, schedule: Q01DX009 (ip), vehicle: saline",99 % of control
same,T/C,[1],101 % of control
same,T/C,"dose: 16.0 mg/kg/injection, schedule: Q01DX009 (ip), vehicle: saline",91 % of control
same,T/C,[2],106 % of control
same,T/C,"dose: 32.0 mg/kg/injection, schedule: Q01DX009 (ip), vehicle: saline",100 % of control
same,T/C,[3],103 % of control
same,T/C,"dose: 64.0 mg/kg/injection, schedule: Q01DX009 (ip), vehicle: saline",102 % of control
same,T/C,[4],103 % of control
same,T/C,"dose: 128.0 mg/kg/injection, schedule: Q01DX009 (ip), vehicle: saline",94 % of control
same,T/C,[5],106 % of control
same,T/C,"dose: 400.0 mg/kg/injection, schedule: Q01DX009 (ip), vehicle: saline",101 % of control
same,T/C,"dose: 800.0 mg/kg/injection, schedule: Q01DX009 (ip), vehicle: saline",106 % of control
O=C(O)CCC(=O)c1ccc2ccc3cccc4ccc1c2c34,T/C,"dose: 50.0 mg/kg/injection, schedule: Q01DX005 (ip), vehicle: Klucel (hydroxypropylcellulose) (HPC)",102 % of control
same,T/C,"dose: 50.0 mg/kg/injection, schedule: Q01DX009 (ip), vehicle: saline with Tween-80",101 % of control
same,T/C,"dose: 100.0 mg/kg/injection, schedule: Q01DX005 (ip), vehicle: Klucel (hydroxypropylcellulose) (HPC)",103 % of control
same,T/C,"dose: 100.0 mg/kg/injection, schedule: Q01DX009 (ip), vehicle: saline with Tween-80",115 % of control
same,T/C,"dose: 200.0 mg/kg/injection, schedule: Q01DX005 (ip), vehicle: Klucel (hydroxypropylcellulose) (HPC)",99 % of control
O=c1[nH]nc(/C=C/C=C/c2ccccc2)c(=O)[nH]1,T/C,"dose: 100.0 mg/kg/injection, schedule: Q01DX001 (ip), vehicle: saline",97 % of control
same,T/C,"dose: 200.0 mg/kg/injection, schedule: Q01DX001 (ip), vehicle: saline",101 % of control
same,T/C,"dose: 400.0 mg/kg/injection, schedule: Q01DX001 (ip), vehicle: saline",90 % of control
COC(=O)C(C)(OCc1ccccc1)C(C)C1CO1 (stereo unspecified),T/C,"dose: 50.0 mg/kg/injection, schedule: Q01DX005 (ip), vehicle: saline with Tween-80",100 % of control
same,T/C,"dose: 100.0 mg/kg/injection, schedule: Q01DX005 (ip), vehicle: saline with Tween-80",115 % of control
same,T/C,"dose: 200.0 mg/kg/injection, schedule: Q01DX005 (ip), vehicle: saline with Tween-80",113 % of control
Cc1cc(C(=O)CSC(=S)SC(C)(C)C)ccc1Cl,T/C,[6],100 % of control
same,T/C,[7],96 % of control
same,T/C,[8],90 % of control
CC(C)CC(NC(=O)OC(C)(C)C)C(=O)NC(Cc1c[nH]c2ccccc12)C(=O)NN (stereo unspecified),T/C,[2],87 % of control
same,T/C,[3],94 % of control
same,T/C,[4],92 % of control
same,T/C,[5],92 % of control
CNC(=O)OCc1c(COC(=O)NC)c(-c2ccccc2)n(C)c1-c1ccccc1,T/C,"dose: 10.0 mg/kg/injection, schedule: Q01DX009 (ip), vehicle: distilled water + Tween-80",164 % of control
same,T/C,"dose: 12.5 mg/kg/injection, schedule: Q01DX009 (ip), vehicle: distilled water + Tween-80",181 % of control
same,T/C,"dose: 20.0 mg/kg/injection, schedule: Q01DX009 (ip), vehicle: distilled water + Tween-80",205 % of control
same,T/C,"dose: 40.0 mg/kg/injection, schedule: Q01DX009 (ip), vehicle: distilled water + Tween-80",124 % of control
CN(C)c1ccc2c(SCC(=O)OCC(=O)[C@@]3(O)CC[C@H]4[C@@H]5CCC6=CC(=O)C=C[C@]6(C)[C@H]5C(=O)C[C@@]43C)c3ccc(N(C)C)cc3nc2c1,T/C,"dose: 25.0 mg/kg/injection, schedule: Q01DX005 (ip), vehicle: Klucel (hydroxypropylcellulose) (HPC)",113 % of control
O=C(Nc1ccc(Cl)cc1)Nc1nnc2ncc3c(n12)CCCCCCCCCC3,T/C,[6],102 % of control
same,T/C,[7],87 % of control
Nc1ccccc1C(=O)CCc1ccccc1,T/C,[6],100 % of control
same,T/C,[7],99 % of control
same,T/C,[8],97 % of control
COc1ccc(/C(C#N)=C/c2ccncc2)cc1OC,T/C,[1],102 % of control
same,T/C,[2],97 % of control
same,T/C,[3],101 % of control
same,T/C,[4],101 % of control

# Source: PubChem BioAssay AID330 (DTP/NCI, 2004)
